Test results as given in ChEMBL document CHEMBL3862031, “Design, synthesis and activity of novel sorafenib analogues bearing chalcone unit” (Bioorg Med Chem Lett, 2016).

What was measured:
[1] = (§1) Cytotoxicity against human HepG2 cells after 72 hrs by MTT assay; format: functional, cell-based; conditions: HepG2, 72 h
[2] = (§2) Cytotoxicity against human MCF7 cells after 72 hrs by MTT assay; format: functional, cell-based; conditions: MCF7, 72 h
[3] = (§3) Cytotoxicity against human A549 cells after 72 hrs by MTT assay; format: functional, cell-based; conditions: A549, 72 h
[4] = (§4) Cytotoxicity against human PC3 cells after 72 hrs by MTT assay; format: functional, cell-based; conditions: PC-3, 72 h
MCF7 [5] = test: Potency index, ratio of sorafenib IC50 to compound IC50 for human MCF7 cells; format: functional
HepG2 [6] = test: Potency index, ratio of sorafenib IC50 to compound IC50 for human HepG2 cells; format: functional
PC-3 [7] = test: Potency index, ratio of sorafenib IC50 to compound IC50 for human PC3 cells; format: functional
[8] = target: Vascular endothelial growth factor receptor 2 (Homo sapiens, UniProt P35968); test: Inhibition of VEGFR2 (unknown origin) using FAM-labeled peptide as substrate preincubated for 10 mins followed by substrate addition by mobility shift assay
Sequence of Vascular endothelial growth factor receptor 2 (P35968 whole entry): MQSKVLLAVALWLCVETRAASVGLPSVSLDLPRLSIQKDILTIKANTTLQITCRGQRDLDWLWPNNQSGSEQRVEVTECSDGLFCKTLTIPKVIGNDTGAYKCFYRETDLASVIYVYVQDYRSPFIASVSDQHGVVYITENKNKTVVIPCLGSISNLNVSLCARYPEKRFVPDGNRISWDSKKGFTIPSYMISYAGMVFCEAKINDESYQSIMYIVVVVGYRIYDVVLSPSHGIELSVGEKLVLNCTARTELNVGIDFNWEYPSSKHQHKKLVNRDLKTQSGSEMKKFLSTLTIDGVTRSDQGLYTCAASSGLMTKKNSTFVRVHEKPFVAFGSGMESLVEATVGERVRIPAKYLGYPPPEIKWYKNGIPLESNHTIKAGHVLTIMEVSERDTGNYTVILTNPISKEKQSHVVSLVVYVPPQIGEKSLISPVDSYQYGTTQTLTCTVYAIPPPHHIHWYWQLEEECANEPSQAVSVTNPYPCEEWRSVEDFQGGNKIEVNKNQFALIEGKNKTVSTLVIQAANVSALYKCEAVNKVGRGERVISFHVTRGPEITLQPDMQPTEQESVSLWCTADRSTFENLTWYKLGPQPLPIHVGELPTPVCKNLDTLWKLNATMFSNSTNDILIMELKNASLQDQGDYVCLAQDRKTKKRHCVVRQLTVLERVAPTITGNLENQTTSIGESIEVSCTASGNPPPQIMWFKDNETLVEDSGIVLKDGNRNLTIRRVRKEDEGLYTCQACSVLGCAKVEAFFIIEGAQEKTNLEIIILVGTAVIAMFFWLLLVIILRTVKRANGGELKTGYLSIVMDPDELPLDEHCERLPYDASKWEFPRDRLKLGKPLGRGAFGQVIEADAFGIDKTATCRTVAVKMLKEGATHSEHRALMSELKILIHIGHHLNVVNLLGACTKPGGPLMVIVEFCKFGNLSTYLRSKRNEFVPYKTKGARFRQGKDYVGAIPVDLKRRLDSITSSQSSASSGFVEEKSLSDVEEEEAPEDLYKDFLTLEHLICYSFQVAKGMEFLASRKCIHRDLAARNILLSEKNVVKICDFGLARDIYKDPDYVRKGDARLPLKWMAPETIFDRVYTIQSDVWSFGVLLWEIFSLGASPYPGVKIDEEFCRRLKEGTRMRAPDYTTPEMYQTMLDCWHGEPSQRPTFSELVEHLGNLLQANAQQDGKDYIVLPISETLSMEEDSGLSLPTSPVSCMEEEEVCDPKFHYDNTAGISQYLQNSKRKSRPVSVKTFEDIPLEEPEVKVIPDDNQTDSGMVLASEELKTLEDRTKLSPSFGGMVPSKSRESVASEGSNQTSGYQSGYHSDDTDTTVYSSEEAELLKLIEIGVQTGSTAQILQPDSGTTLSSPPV

[9] = target: Serine/threonine-protein kinase B-raf (Homo sapiens, UniProt P15056); test: Inhibition of BRAF (unknown origin) using FAM-labeled peptide as substrate after 1 hr by Lanthascreen assay
Sequence of Serine/threonine-protein kinase B-raf (P15056 whole entry): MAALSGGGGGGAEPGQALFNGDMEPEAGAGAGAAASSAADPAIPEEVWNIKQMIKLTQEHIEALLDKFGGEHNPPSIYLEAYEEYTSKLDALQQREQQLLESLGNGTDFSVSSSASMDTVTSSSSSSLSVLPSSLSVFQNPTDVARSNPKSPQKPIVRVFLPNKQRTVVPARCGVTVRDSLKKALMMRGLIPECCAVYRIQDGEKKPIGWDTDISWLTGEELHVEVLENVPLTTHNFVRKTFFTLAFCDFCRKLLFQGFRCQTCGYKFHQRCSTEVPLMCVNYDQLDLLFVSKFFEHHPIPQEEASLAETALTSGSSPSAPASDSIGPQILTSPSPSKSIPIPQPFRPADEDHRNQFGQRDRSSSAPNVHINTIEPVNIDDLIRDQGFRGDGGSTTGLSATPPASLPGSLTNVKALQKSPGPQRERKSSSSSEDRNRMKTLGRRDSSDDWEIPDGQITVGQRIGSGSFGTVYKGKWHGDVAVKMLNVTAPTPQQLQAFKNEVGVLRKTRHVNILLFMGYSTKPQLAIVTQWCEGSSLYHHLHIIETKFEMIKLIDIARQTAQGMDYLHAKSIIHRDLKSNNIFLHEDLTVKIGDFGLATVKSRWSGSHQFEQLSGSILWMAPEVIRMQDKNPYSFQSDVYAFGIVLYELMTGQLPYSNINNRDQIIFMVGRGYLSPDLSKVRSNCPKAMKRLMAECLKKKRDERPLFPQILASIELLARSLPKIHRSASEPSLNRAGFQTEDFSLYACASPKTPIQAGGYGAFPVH

A549 = test: as §3; format: functional, cell-based
HepG2 [10] = test: as §1; format: functional, cell-based
MCF7 [11] = test: as §2; format: functional, cell-based
PC-3 [12] = test: as §4; format: functional, cell-based

| Structure (SMILES) | IC50 [1] [µM] | IC50 [2] [µM] | IC50 [3] [µM] | IC50 [4] [µM] | also measured |
| --- | --- | --- | --- | --- | --- |
| CNC(=O)c1cc(Oc2ccc(C(=O)/C=C/c3ccc(OC)c(OC)c3OC)cc2)ccn1 | 9.81 | 2.91 |  |  |  |
| CNC(=O)c1cc(Oc2ccc(C(=O)/C=C/c3ccc([N+](=O)[O-])cc3)cc2)ccn1 |  |  | > 50 | 11.1 |  |
| CNC(=O)c1cc(Oc2ccc(C(=O)/C=C/c3cccc([N+](=O)[O-])c3)cc2)ccn1 | > 50 | > 50 |  |  |  |
| CNC(=O)c1cc(Oc2ccc(C(=O)/C=C/c3cccc(Cl)c3Cl)cc2)ccn1 | > 50 |  | > 50 | > 50 |  |
| CNC(=O)c1cc(Oc2ccc(C(=O)/C=C/c3ccc(Cl)cc3Cl)cc2)ccn1 | 11.7 | 3.99 | 9.46 | 9.22 |  |
| CNC(=O)c1cc(Oc2ccc(C(=O)/C=C/c3cc(OC)c(OC)c(OC)c3)cc2)ccn1 | 0.56 | 3.88 | 9.5 | 3.15 | Ratio IC50 (MCF7 [5]): 1.03 - 6.14; Ratio IC50 (HepG2 [6]): 6.14; Ratio IC50 (PC-3 [7]): 1.03 - 6.14; IC50 [8]: 3.2 µM; IC50 [9]: 1.8 µM |
| CNC(=O)c1cc(Oc2ccc(/C=C/C(=O)c3ccc([N+](=O)[O-])cc3)cc2)ccn1 | 41.4 | 54.3 |  |  |  |
| CNC(=O)c1cc(Oc2ccc(/C=C/C(=O)c3ccc(Cl)cc3)cc2)ccn1 | 36.6 | 17.5 |  |  |  |
| CNC(=O)c1cc(Oc2ccc(C(=O)/C=C/c3ccc(Br)cc3)cc2)ccn1 | > 50 | > 50 | > 50 | 18.5 |  |
| CNC(=O)c1cc(Oc2ccc(C(=O)/C=C/c3ccc(F)cc3)cc2)ccn1 | 12.6 | 28.5 | 18.6 | 6.14 |  |
| CNC(=O)c1cc(Oc2ccc(C(=O)/C=C/c3ccc(C#N)cc3)cc2)ccn1 | 5.43 | 9.52 | 26.4 | 3.87 |  |
| CNC(=O)c1cc(Oc2ccc(/C=C/C(=O)c3ccc(Br)cc3)cc2)ccn1 | 22 | 7.1 | 20.1 | 3.56 |  |
| CNC(=O)c1cc(Oc2ccc(C(=O)/C=C/c3cccc(Br)c3)cc2)ccn1 | 2.87 | 10.4 | 9.94 | 3.4 | Activity (A549): Dose-dependent effect; Activity (HepG2 [10]): Dose-dependent effect; Activity (MCF7 [11]): Dose-dependent effect; Activity (PC-3 [12]): Dose-dependent effect; IC50 [8]: 0.72 µM; IC50 [9]: 2.9 µM |
| CNC(=O)c1cc(Oc2ccc(C(=O)/C=C/c3ccc(F)cc3Cl)cc2)ccn1 | 7.32 | 21.1 | 21.1 | 4.76 |  |
| CNC(=O)c1cc(Oc2ccc(C(=O)/C=C/c3ccc(Cl)c(Cl)c3)cc2)ccn1 | 11.4 | 13.2 | 33.7 | 8.26 |  |
| CNC(=O)c1cc(Oc2ccc(NC(=O)Nc3ccc(Cl)c(C(F)(F)F)c3)cc2)ccn1 [SORAFENIB] | 3.44 | 3.18 | 2.92 | 3.24 |  |
| CNC(=O)c1cc(Oc2ccc(/C=C/C(=O)c3ccc(C)cc3)cc2)ccn1 | > 50 | 24.9 |  |  |  |
| CNC(=O)c1cc(Oc2ccc(C(=O)/C=C/c3ccc(OC)cc3)cc2)ccn1 |  |  | > 50 | > 50 |  |
| CNC(=O)c1cc(Oc2ccc(C(=O)/C=C/c3ccccc3)cc2)ccn1 | 6.64 | 5.96 | 5.04 | 3.17 | Ratio IC50 (PC-3 [7]): 1.02; IC50 [8]: 1.1 µM; IC50 [9]: 2.4 µM |
| CNC(=O)c1cc(Oc2ccc(/C=C/C(=O)c3ccc(F)cc3)cc2)ccn1 | 12.3 | 2.05 |  |  | Ratio IC50 (MCF7 [5]): 1.55; IC50 [8]: > 50 µM; IC50 [9]: > 50 µM |
